Patent US20060100168A1, “Method of treating cancer using adenosine and its analogs” (The Trustee of Boston University, priority 2002, published 2006)
Entries after “also recorded” stand apart in the source; their conditions may differ.

Columns and labels:
Hs578T cells [1] = assay: Apoptosis by propidium iodide staining and flow cytometry; assay type: cell-based, human; details: 100 μM, two days
Procedure: (§1) Flow Cytometry and Apoptosis Analysis: Cells were detached from tissue culture plates by trypsin treatment. Cells were collected by centrifugation at 1200 g for 5 minutes and washed once with PBS. Staining of cells with propidium iodide and analysis on a flow cytometer (FACScan, Becton Dickinson, Research Triangle Park, N.C.) was performed as described before (42). Data were analyzed with CellQuest software (Becton Dickinson, Research Triangle Park, N.C.). The percentage of cells appearing with a ploidy level smaller than a diploid content was calculated as an estimate of cells undergoing apoptosis.

[2] = system: ERE promoter activity (transcriptional activity of endogenous ERα); assay: Reporter gene assay pERE-Tk-Luc in MCF-7 cells; assay type: cell-based, human; details: MCF-7 transfected with pERE-Tk-Luc; 12 hours
Procedure: (§2) Transfections and Reporter Gene Assay: Transient transfection was performed using FuGene6 (Roche, Indianapolis, Ind.) transfection reagent according to manufacturer's protocol. Circular reporter plasmid pERE-Tk-Luc at 10 μg and 10 μg of pCMV-β-Gal (as a measure of efficiency of trasnfection) were transfected with 50 μl of FuGene6. Cells were split into 6 well plates 12 hours after transfection, and incubated overnight in fresh medium. […] Luciferase and β-galactosidase activities were measured as described before (43, 44).

Akt (Ser 473) = assay: Akt phosphorylation in MCF-7 cells; assay type: cell-based, human; details: not shown
T47D cells = assay: Anchorage-independent growth (soft agar) assay; assay type: cell-based, human; details: 100 μM, two weeks
Procedure: (§3) Anchorage-independent growth (soft agar) assay: Soft agar assay was performed as described (40) with the following modifications. Ligands were added into the bottom and top agar before plating into 6-well plates. Cells were treated with trypsin (Invitrogen, Carlsbad, Calif.) for 5 minutes in a 37° C. incubator and pipetted several times so that most cells were in single cell forms. Cells were counted with a hemacytometer (Hausser Scientific/VWR, So. Plainfield, N.J.), and 10,000 cells were mixed with top agar and plated into each well. After the top agar had solidified, two ml of medium containing the same treatment was added on top of the agar. This covering medium was changed every two days during culture. After two weeks of culture, each well was counted for the number of colonies formed on an Olympus IX70 microscope under 40× optical amplification. A cell colony was defined as any cluster of cells that contain more than 3 cells. The average of counts from 3 random optical fields for each well was taken as the colony number and analyzed. Each treatment was performed in triplicates. The averages and standard deviations shown in the figures were calculated based on triplicate experiments.

HeLa cells = assay: Anchorage-independent growth (soft agar) assay; assay type: cell-based, human; details: 100 μM, two weeks
Procedure: as §3

MCF-7 cells [3] = assay: Anchorage-independent growth (soft agar) assay; assay type: cell-based, human
Procedure: as §3

ZR-75 cells [4] = assay: Anchorage-independent growth (soft agar) assay; assay type: cell-based, human; details: ZR-75 soft agar; 100 μM; two weeks
Procedure: as §3

Hs578T cells [5] = assay: Anchorage-independent growth (soft agar) assay; assay type: cell-based, human; details: 100 μM, two weeks
Procedure: as §3

MCF-7 cells [6] = assay: Apoptosis by propidium iodide staining and flow cytometry (sub-diploid events); assay type: cell-based, human; details: 100 μM
Procedure: as §1

pS2 mRNA = assay: Semi-quantitative RT-PCR of pS2 mRNA in MCF-7 cells; assay type: cell-based, human; details: 100 μM, observed after 8 to 12 hours
Procedure: Total RNA preparation and Reverse Transcription Polymerase Chain Reaction (RT-PCR): Total RNA from MCF-7 cells was prepared with Trizol (Invitrogen, Carlsbad, Calif.) as described before (41). For reverse transcription, 2 μg of RNA were used in a […] with random primers and M-MLV reverse transcriptase (Invitrogen, Carlsbad, Calif.), following the manufacturer's protocol. To control for possible contamination from genomic DNA in subsequent PCR reactions, control reverse transcription reactions were carried out under identical conditions, only without reverse transcriptase. After reverse transcription, 5% of the product was used in each PCR reaction. For the experiments analyzing A3 adenosine receptor (A3AR) expression, 27 cycles were used in the PCR reactions. Specific primers were designed for human A3AR, which match to two separate exons, according to genomic sequences (from GenBank). Sequences for the sense and antisense A3AR primers are: 5′tccatcatgtccttgctg3′ (SEQ ID NO: 1) and 5′gcacatgacaaccaggg3′ (SEQ ID NO.: 2). In the experiments analyzing estrogen receptor a (ERα) mRNA, semi-quantitative PCR reactions were carried out with 23 cycles for ERα primers and 19 cycles for GAPDH primers (used as a control). The cycle numbers were tested in previous experiments not to produce saturation effects. […]

ZR-75 cells [7] = assay: Anchorage-dependent growth assay; assay type: cell-based, human; details: 100 μM, three days
Procedure: (§4) Anchorage-dependent growth assay: Cells were plated into 6-well plates and grown overnight before treatments. The seeding concentration of MCF-7 cells was 2×10^5/well, which was determined during preliminary experiments as not allowing the cells to reach confluency within 3 days. Cells were treated either with vehicle or ligands, as indicated. Cells were detached by incubation with trypsin (Invitrogen, Carlsbad, Calif.) and counted with a hemacytometer before or after treatment.

Hs578T cells [8] = assay: Anchorage-dependent growth assay; assay type: cell-based, human; details: 100 μM, three days
Procedure: as §4

CMV promoter = assay: Reporter gene assay pCMV-β-Gal in MCF-7 cells; assay type: cell-based, human; details: MCF-7 transfected with pCMV-β-Gal; 12 hours
Procedure: as §2

MCF-7 cells [9] = assay: Anchorage-dependent growth assay (viable cell count, Trypan Blue); assay type: cell-based, human; details: MCF-7
Procedure: as §4

[10] = in vivo application; Fishman et al. 2002; cited from earlier work
[11] = system: cyclin levels in HeLa cells; assay: Western blot of cyclins in HeLa cells; assay type: cell-based, human; details: data not shown
Procedure: Western Blot Analysis: Cells were washed three times in cold 1×PBS, and collected by scraping on ice. Western blot analysis was performed as we described before with the chemiluminescence method (41). Antibodies used in this study were: ERα (NeoMarkers, Ab-15), Cyclin A (Santa Cruz Biotech, H-432), Cyclin B1 (Santa Cruz Biotech, H-433), Cyclin E (Upstate Biotech, HE-12), p27 (Santa Cruz Biotech, F-8). ERα antibody was used at 1:100 dilutions. Cyclin A, cyclin B1 and p27 antibodies were used at 1:500 dilutions. Cyclin E antibody was used at 1:1000 dilutions.

**Q.** Which “Apoptosis, in words” value (Hs578T cells [1]) does the source give for CNC(=O)[C@H]1O[C@@H](n2cnc3c(NCc4cccc(I)c4)ncnc32)[C@H](O)[C@@H]1O [IB-MECA, N^6-(3-iodobenzyl)adenosine-5′-N-methyluronamide] here?
**A.** substantial apoptosis

**Q.** What about the “Drop of ERE promoter activity” value [2] of the same molecule?
**A.** more than 5 fold

**Q.** What about the “Akt phosphorylation (at Ser 473)” value (Akt (Ser 473)) of the same molecule?
**A.** induced Akt phosphorylation

**Q.** And the “Colony formation, in words” value (T47D cells)?
**A.** dramatic decrease in colony formation

**Q.** And the “Colony formation, in words” value (HeLa cells)?
**A.** mild response

**Q.** And the “Concentration at which the cell growth inhibitory effect is observed” value (MCF-7 cells [3]; MCF-7)?
**A.** higher than 10 μM

**Q.** And the “Effect on anchorage-independent growth (colony formation), in words” value (MCF-7 cells [3]; MCF-7 soft agar, different concentrations, two weeks)?
**A.** dose-dependent inhibition

**Q.** What about the “Colony formation, in words” value (ZR-75 cells [4]) of the same molecule?
**A.** dramatic decrease in colony formation

**Q.** What about the “Colony formation, in words” value (Hs578T cells [5]) of the same molecule?
**A.** dramatic decrease in colony formation

**Q.** And the “Apoptosis, in words” value (MCF-7 cells [6]; two days)?
**A.** non significant change

**Q.** What about the Apoptosis (MCF-7 cells [6]; 2 days of treatment, except adenosine (500 μM) and inosine (1 mM), number of apoptotic cells compared to vehicle control (set to 1), average ± SD) of the same molecule?
**A.** 1.12 ± 0.02

**Q.** What about the “pS2 mRNA level” value (pS2 mRNA) of the same molecule?
**A.** reduced

**Q.** And the “Cell counts after treatment compared to day 0, in words” value (ZR-75 cells [7])?
**A.** decreased only mildly

**Q.** And the “Cell counts after treatment compared to day 0, in words” value (Hs578T cells [8])?
**A.** affected more severely

**Q.** What about the CMV promoter activity (CMV promoter) of the same molecule?
**A.** did not show any decrease in activity

**Q.** And the “Cell counts after treatment compared to day 0, in words” value (MCF-7 cells [9]; 100 μM, three days, trypan blue negative cells)?
**A.** decreased only mildly; also recorded: did not show much change in the number of viable cells

**Q.** And the “Cell Growth” value (MCF-7 cells [9]; 2 days of treatment, compounds at 100 μM, except adenosine (500 μM) and inosine (1 mM), normalized to vehicle control (set to 1), negative = decrease vs count before treatment, average ± SD, three experiments)?
**A.** −0.19 ± 0.06

**Q.** What about the “Effect on blood cell counts” value [10] of the same molecule?
**A.** no inhibitory effect

**Q.** What about the Cyclin levels [11] of the same molecule?
**A.** no significant change
